Test results reported in US20240197744A1, “TREATING SEX STEROID DEPENDENT CANCER WITH BMX INHIBITORS” (The Cleveland Clinic Foundation, priority 2021, published 2024).

Columns and labels:
VCaP xenografts = experiment: VCaP xenograft in eugonadal mice; format: in vivo; details: VCaP xenograft tumors
Experimental: (§1) Total RNA was extracted with GenElute Mammalian Total RNA miniprep kit (Sigma-Aldrich), and 1 μg RNA was reverse-transcribed to complementary DNA (cDNA) with the iScript cDNA Synthesis Kit (Bio-Rad). An ABI 7500 Real-Time PCR instrument (Applied Biosystems) was used to perform quantitative PCR (qPCR) analysis, using iTaq Fast SYBR Green Supermix with ROX (Bio-Rad) in 96-well plates at a final reaction volume of 10 μl. The qPCR analysis was carried out in triplicate with the following primer sets:
(§2) All mouse studies were performed under a protocol approved by the Institutional Animal Care and Use Committee of the Cleveland Clinic Lerner Research Institute. […]
(§3) To evaluate whether zanubrutinib suppresses tumor growth, 6 million C4-2 or 10 million VCaP cells (100 μl in 50% Matrigel and 50% growth media) were subcutaneously injected into mice. […] Tumor volume and progression-free survival were determined as described above. […] The number of mice in each group was determined by those that survived surgical procedures and had reached the 200 mm^3 tumor volume required to initiate treatment. Tumor diameters were measured by digital calipers three times per week and fresh frozen upon mouse sacrifice.
(§4) Androgens in xenografts were assessed by liquid chromatography tandem mass spectrometry as reported previously with slight modifications (Li et al., 2021; Zhu et al., 2018). […]

C4-2 xenografts = experiment: C4-2 xenograft in eugonadal mice; format: in vivo; details: C4-2 xenograft tumors
Experimental: as §1, §2, §3, §4

C=CC(=O)N1CCC([C@@H]2CCNc3c(C(N)=O)c(-c4ccc(Oc5ccccc5)cc4)nn32)CC1 [zanubrutinib, Zanubrutinib]
no significant effect: tumor testosterone by mass spectrometry (VCaP xenografts) | AR target gene expression (VCaP xenografts; qPCR) | tumor testosterone by mass spectrometry (C4-2 xenografts) | AR target gene expression (C4-2 xenografts; qPCR)
